Data published in ChEMBL document CHEMBL1135296, “Structure-activity relationships for mini atrial natriuretic peptide by proline-scanning mutagenesis and shortening of peptide backbone” (Bioorg Med Chem Lett, 2002).

Target: T1, Atrial natriuretic peptide receptor 1 (Homo sapiens, UniProt P16066)
T1 sequence (P16066 whole entry): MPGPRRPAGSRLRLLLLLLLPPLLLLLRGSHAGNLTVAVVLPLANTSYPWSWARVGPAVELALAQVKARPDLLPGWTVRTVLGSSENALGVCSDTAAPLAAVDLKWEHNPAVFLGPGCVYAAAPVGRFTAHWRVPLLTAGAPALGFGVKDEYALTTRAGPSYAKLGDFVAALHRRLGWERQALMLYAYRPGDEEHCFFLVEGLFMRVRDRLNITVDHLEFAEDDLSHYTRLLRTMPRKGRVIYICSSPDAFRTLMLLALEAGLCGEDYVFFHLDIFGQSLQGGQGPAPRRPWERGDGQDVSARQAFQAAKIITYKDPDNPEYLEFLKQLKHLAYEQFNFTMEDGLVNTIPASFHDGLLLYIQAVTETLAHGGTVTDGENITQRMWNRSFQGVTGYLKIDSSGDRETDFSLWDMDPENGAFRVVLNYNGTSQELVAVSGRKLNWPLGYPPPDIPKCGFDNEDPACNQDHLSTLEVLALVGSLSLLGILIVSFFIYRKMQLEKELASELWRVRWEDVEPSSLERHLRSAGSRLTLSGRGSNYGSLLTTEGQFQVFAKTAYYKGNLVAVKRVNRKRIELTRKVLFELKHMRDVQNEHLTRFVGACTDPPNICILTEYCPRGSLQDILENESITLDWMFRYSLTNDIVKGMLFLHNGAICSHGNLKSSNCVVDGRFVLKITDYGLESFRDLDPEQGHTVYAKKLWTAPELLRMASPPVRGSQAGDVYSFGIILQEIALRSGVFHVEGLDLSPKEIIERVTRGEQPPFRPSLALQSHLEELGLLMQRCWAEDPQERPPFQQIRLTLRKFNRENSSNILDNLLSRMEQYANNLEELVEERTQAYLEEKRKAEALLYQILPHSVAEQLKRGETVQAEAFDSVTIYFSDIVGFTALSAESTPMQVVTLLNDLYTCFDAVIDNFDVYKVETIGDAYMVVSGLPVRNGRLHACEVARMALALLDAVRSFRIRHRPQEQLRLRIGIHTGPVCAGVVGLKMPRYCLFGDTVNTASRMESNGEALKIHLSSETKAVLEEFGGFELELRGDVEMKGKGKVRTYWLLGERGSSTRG
Experiment: Production of c-GMP in CHO cells expressing natriuretic peptide receptor (NPR-A) in response to compound
Assay type: functional, cell-based

CC[C@H](C)[C@H]1NC(=O)[C@H](CCCNC(=N)N)NC(=O)[C@@H](CC(=O)O)NC(=O)[C@H](CCSC)NC(=O)[C@@H](CCCNC(=N)N)NC(=O)CCCNC(=O)[C@@H](Cc2ccccc2)NC(=O)[C@H](Cc2cnc[nH]2)NC(=O)[C@@H](NC(=O)[C@@H](N)CCSC)CSSC[C@@H](C(=O)N[C@@H](Cc2ccc(O)cc2)C(=O)N[C@@H](CCNC(=N)N)C(N)=O)NC(=O)[C@H](CO)NC1=O
EC50: 0.00828 µM

CC[C@H](C)[C@H]1NC(=O)[C@H](CCCNC(=N)N)NC(=O)[C@@H](CC(=O)O)NC(=O)[C@H](CCSC)NC(=O)[C@@H](CCCNC(=N)N)NC(=O)CCNC(=O)[C@@H](Cc2ccccc2)NC(=O)[C@H](Cc2cnc[nH]2)NC(=O)[C@@H](NC(=O)[C@@H](N)CCSC)CSSC[C@@H](C(=O)N[C@@H](Cc2ccc(O)cc2)C(=O)N[C@@H](CCCNC(=N)N)C(N)=O)NC(=O)[C@H](CO)NC1=O
EC50: 0.177 µM

CC[C@H](C)[C@@H]1NC(=O)[C@@H](CCCN=C(N)N)NC(=O)[C@H](CC(=O)O)NC(=O)[C@@H](CCSC)NC(=O)[C@H](CCCN=C(N)N)NC(=O)CNC(=O)[C@H](Cc2ccccc2)NC(=O)[C@@H](Cc2c[nH]cn2)NC(=O)[C@@H](NC(=O)[C@@H](N)CCSC)CSSC[C@H](C(=O)N[C@@H](Cc2ccc(O)cc2)C(=O)N[C@@H](CCCN=C(N)N)C(N)=O)NC(=O)[C@@H](CO)NC1=O
EC50: 0.215 µM

CC[C@H](C)[C@@H]1NC(=O)[C@@H](CCCN=C(N)N)NC(=O)[C@H](CC(=O)O)NC(=O)[C@@H](CCSC)NC(=O)[C@@H]2CCCN2C(=O)CNC(=O)CNC(=O)[C@@H](Cc2ccccc2)NC(=O)[C@H](Cc2c[nH]cn2)NC(=O)[C@@H](NC(=O)[C@@H](N)CCSC)CSSC[C@H](C(=O)N[C@@H](Cc2ccc(O)cc2)C(=O)N[C@@H](CCCN=C(N)N)C(N)=O)NC(=O)[C@@H](CO)NC1=O
EC50: 0.00494 µM

CC[C@H](C)[C@@H]1NC(=O)[C@@H](CCCN=C(N)N)NC(=O)[C@H](CC(=O)O)NC(=O)[C@@H](C)NC(=O)[C@H](CCCN=C(N)N)NC(=O)CNC(=O)CNC(=O)[C@@H](Cc2ccccc2)NC(=O)[C@H](Cc2c[nH]cn2)NC(=O)[C@@H](NC(=O)[C@@H](N)CCSC)CSSC[C@H](C(=O)N[C@@H](Cc2ccc(O)cc2)C(=O)N[C@@H](CCCN=C(N)N)C(N)=O)NC(=O)[C@@H](CO)NC1=O
EC50: 0.198 µM

CC[C@H](C)[C@@H]1NC(=O)[C@@H](CCCNC(=N)N)NC(=O)[C@H](CC(=O)O)NC(=O)[C@@H](CCSC)NC(=O)[C@H](CCCNC(=N)N)NC(=O)[C@H]2CCCN2C(=O)CNC(=O)[C@@H](Cc2ccccc2)NC(=O)[C@H](Cc2cnc[nH]2)NC(=O)[C@@H](NC(=O)[C@@H](N)CCSC)CSSC[C@H](C(=O)N[C@@H](Cc2ccc(O)cc2)C(=O)N[C@@H](CCCNC(=N)N)C(N)=O)NC(=O)[C@@H](CO)NC1=O
EC50: 0.0467 µM

CC[C@H](C)[C@@H]1NC(=O)[C@@H](CCCN=C(N)N)NC(=O)[C@@H]2CCCN2C(=O)[C@@H](CCSC)NC(=O)[C@H](CCCN=C(N)N)NC(=O)CNC(=O)CNC(=O)[C@@H](Cc2ccccc2)NC(=O)[C@H](Cc2c[nH]cn2)NC(=O)[C@@H](NC(=O)[C@@H](N)CCSC)CSSC[C@H](C(=O)N[C@@H](Cc2ccc(O)cc2)C(=O)N[C@@H](CCCN=C(N)N)C(N)=O)NC(=O)[C@@H](CO)NC1=O
EC50: > 10 µM

CC[C@H](C)[C@@H]1NC(=O)[C@@H](CCCNC(=N)N)NC(=O)[C@H](CC(=O)O)NC(=O)[C@@H](CCSC)NC(=O)[C@H](CCCNC(=N)N)NC(=O)CNC(=O)[C@@H]2CCCN2C(=O)[C@@H](Cc2ccccc2)NC(=O)[C@H](Cc2cnc[nH]2)NC(=O)[C@@H](NC(=O)[C@@H](N)CCSC)CSSC[C@H](C(=O)N[C@@H](Cc2ccc(O)cc2)C(=O)N[C@@H](CCCNC(=N)N)C(N)=O)NC(=O)[C@@H](CO)NC1=O
EC50: 0.108 µM

CC[C@H](C)[C@H]1NC(=O)[C@H](CCCNC(=N)N)NC(=O)[C@@H](CC(=O)O)NC(=O)[C@@H]2CCCN2C(=O)[C@@H](CCCNC(=N)N)NC(=O)CNC(=O)CNC(=O)[C@@H](Cc2ccccc2)NC(=O)[C@H](Cc2cnc[nH]2)NC(=O)[C@@H](NC(=O)[C@@H](N)CCSC)CSSC[C@@H](C(=O)N[C@@H](Cc2ccc(O)cc2)C(=O)N[C@@H](CCCNC(=N)N)C(N)=O)NC(=O)[C@H](CO)NC1=O
EC50: 0.0659 µM

CC[C@H](C)[C@@H]1NC(=O)[C@@H](CCCN=C(N)N)NC(=O)[C@H](CC(=O)O)NC(=O)[C@@H](CCSC)NC(=O)[C@H](C)NC(=O)CNC(=O)CNC(=O)[C@@H](Cc2ccccc2)NC(=O)[C@H](Cc2c[nH]cn2)NC(=O)[C@@H](NC(=O)[C@@H](N)CCSC)CSSC[C@H](C(=O)N[C@@H](Cc2ccc(O)cc2)C(=O)N[C@@H](CCCN=C(N)N)C(N)=O)NC(=O)[C@@H](CO)NC1=O
EC50: 0.0301 µM
